pIC50: −log10 of the molar value. Structures can show the parent of a compound that is named as a salt.

In this test the target is human complement factor B (CVF-Bb complex) (Homo sapiens (Human), UniProt P00751). The test can be described thus: Human Complement Factor B ELISA Assay. As to conditions: CVF-Bb complex 3 nM, 1 hour preincubation with compound at room temperature, human C3 substrate 1 μM, C3a quantified by ELISA; read-out: Factor B IC50. It is filed as biochemical. In short, it runs like this:
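Preformed CVF-Bb complex (3 nM; cobra venom factor with recombinant human factors B and D) preincubated with compound 1 h, RT, in PBS pH 7.4, 10 mM MgCl2, 0.05% CHAPS. Plasma C3 added at 1 μM final for 1 h, then stopped; C3a product measured by ELISA, IC50 from % inhibition.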

In the case of `[2H]C([2H])([2H])N[C@H](CC(=O)N1CCN(c2nc(N)c3cc(OC)c(OC)c(F)c3n2)CC1)c1ccc(F)cc1` [Example 80, (R)-1-(4-(4-Amino-8-fluoro-6,7-dimethoxyquinazolin-2-yl)piperazin-1-yl)-3-(4-fluorophenyl)-3-(d^3-methylamino)propan-1-one hydrochloride], the pIC50 is 8.22.
As for `COc1cc2c(N)nc(N3CCN(C(=O)C[C@@H](N)c4ccccc4)CC3)nc2c(Br)c1OC` [Example 81, (R)-3-amino-1-(4-(4-Amino-8-bromo-6,7-dimethoxyquinazolin-2-yl)piperazin-1-yl)-3-phenylpropan-1-one], the figure is 6.29; as for `COc1cc2c(N)nc(N3CCN(C(=O)C[C@@H](N)c4ccc(F)cc4)CC3)nc2c(Cl)c1OC` [Example 82, (R)-3-Amino-1-(4-(4-amino-8-chloro-6,7-dimethoxyquinazolin-2-yl)piperazin-1-yl)-3-(4-fluorophenyl)propan-1-one], 5.99.
The figure for `COc1cc2nc(N3CCN(C(=O)C[C@@H](N)c4ccc(F)cc4)CC3)nc(N)c2c(F)c1OC` [Example 83, (R)-3-Amino-1-[4-(4-amino-5-fluoro-6,7-dimethoxy-quinazolin-2-yl)-piperazin-1-yl]-3-(4-fluoro-phenyl)-propan-1-one] is 7.52; for `CCN[C@H](CC(=O)N1CCN(c2nc(N)c3cc(OC)c(OC)c(F)c3n2)CC1)c1ccc(F)cc1` [Example 84, (R)-1-[4-(4-Amino-8-fluoro-6,7-dimethoxy-quinazolin-2-yl)-piperazin-1-yl]-3-ethylamino-3-(4-fluoro-phenyl)-propan-1-one] it is 8.22; for `COc1cc2c(N)nc(N3CCN(C(=O)C[C@H](c4ccccc4)N(C)C)CC3)nc2c(F)c1OC` [Example 85, (R)-1-[4-(4-Amino-8-fluoro-6,7-dimethoxy-quinazolin-2-yl)-piperazin-1-yl]-3-dimethylamino-3-phenyl-propan-1-one] it is 7.10.
The figure for `COc1cc2c(N)nc(N3CCN(C(=O)C[C@H](c4ccc(F)cc4)N(C)C)CC3)nc2c(F)c1OC` [Example 86] is 7.40.
As for `COc1cc2c(N)nc(N3CCN(C(=O)C[C@@H](NC(CF)CF)c4ccc(F)cc4)CC3)nc2c(F)c1OC` [Example 87, (R)-1-(4-(4-amino-8-fluoro-6,7-dimethoxyquinazolin-2-yl)piperazin-1-yl)-3-(1,3-difluoropropan-2-ylamino)-3-(4-fluorophenyl)propan-1-one], the pIC50 is 7.40.
The figure for `COc1cc2c(N)nc(N3CCN(C(=O)C[C@@H](NCC(F)(F)F)c4ccc(F)cc4)CC3)nc2c(F)c1OC` [Example 88, (R)-1-[4-(4-Amino-8-fluoro-6,7-dimethoxy-quinazolin-2-yl)-piperazin-1-yl]-3-(4-fluoro-phenyl)-3-(2,2,2-trifluoro-ethylamino)-propan-1-one] is 7.52.
As for `COc1cc2c(N)nc(N3CCN(C(=O)C[C@@H](NC(C)C)c4ccc(F)cc4)CC3)nc2c(F)c1OC` [Example 89, (R)-1-[4-(4-Amino-8-fluoro-6,7-dimethoxy-quinazolin-2-yl)-piperazin-1-yl]-3-(4-fluoro-phenyl)-3-isopropylamino-propan-1-one], the figure is 7.52; as for `CCN[C@H](CC(=O)N1CCN(c2nc(N)c3cc(OC)c(OC)c(F)c3n2)CC1)c1ccc(C#N)cc1` [Example 90, (R)-4-(3-(4-(4-amino-8-fluoro-6,7-dimethoxyquinazolin-2-yl)piperazin-1-yl)-1-(ethylamino)-3-oxopropyl)benzonitrile], 9.00; as for `COc1cc2c(N)nc(N3CCN(C(=O)C[C@@H](NC(C)C)c4ccc(F)c(C#N)c4)CC3)nc2c(F)c1OC` [Example 91, (R)-5-(3-(4-(4-amino-8-fluoro-6,7-dimethoxyquinazolin-2-yl)piperazin-1-yl)-1-(isopropylamino)-3-oxopropyl)-2-fluorobenzonitrile], 7.92.
The figure for `CCCN[C@H](CC(=O)N1CCN(c2nc(N)c3cc(OC)c(OC)c(F)c3n2)CC1)c1ccc(Cl)s1` [Example 92, (R)-1-(4-(4-amino-8-fluoro-6,7-dimethoxyquinazolin-2-yl)piperazin-1-yl)-3-(5-chlorothiophen-2-yl)-3-(propylamino)propan-1-one] is 8.10; for `COc1cc2c(N)nc(N3CCN(C(=O)C[C@@H](NCC4CC4)c4ccsc4)CC3)nc2c(F)c1OC` [Example 93, (R)-1-(4-(4-amino-8-fluoro-6,7-dimethoxyquinazolin-2-yl)piperazin-1-yl)-3-(cyclopropylmethylamino)-3-(thiophen-3-yl)propan-1-one] it is 8.40; for `COCCCN[C@H](CC(=O)N1CCN(c2nc(N)c3cc(OC)c(OC)c(F)c3n2)CC1)c1ccc(F)cc1` [Example 94, (R)-1-(4-(4-amino-8-fluoro-6,7-dimethoxyquinazolin-2-yl)piperazin-1-yl)-3-(4-fluorophenyl)-3-(3-methoxypropylamino)propan-1-one] it is 8.22.
With `COc1cc2c(N)nc(N3CCN(C(=O)C[C@@H](NC(C)C)c4ccc(C#N)cc4)CC3)nc2c(F)c1OC` [Example 95, (R)-4-(3-(4-(4-amino-8-fluoro-6,7-dimethoxyquinazolin-2-yl)piperazin-1-yl)-1-(isopropylamino)-3-oxopropyl)benzonitrile], the pIC50 is 8.52.
The figure for `COc1cc2c(N)nc(N3CCN(C(=O)C[C@H](c4ccc(F)cc4)N4CCC4)CC3)nc2c(F)c1OC` [Example 96, (R)-1-(4-(4-amino-8-fluoro-6,7-dimethoxyquinazolin-2-yl)piperazin-1-yl)-3-(azetidin-1-yl)-3-(4-fluorophenyl)propan-1-one] is 8.00; for `COc1cc2c(N)nc(N3[C@H](C)CN(C(=O)C[C@@H](NC(C)C)c4ccc(C#N)cc4)C[C@@H]3C)nc2c(F)c1OC` [Example 97, 4-((R)-3-((3R,5S)-4-(4-amino-8-fluoro-6,7-dimethoxyquinazolin-2-yl)-3,5-dimethylpiperazin-1-yl)-1-(isopropylamino)-3-oxopropyl)benzonitrile] it is 7.96.
The figure for `COc1cc2c(N)nc(N3CCN(C(=O)C[C@@H](NCCF)c4ccc(F)cc4)CC3)nc2c(F)c1OC` [Example 98] is 8.22; for `COc1cc2c(N)nc(N3CCN(C(=O)C[C@H](c4ccc(F)cc4)N4CCCCC4)CC3)nc2c(F)c1OC` [Example 99, (R)-1-[4-(4-Amino-8-fluoro-6,7-dimethoxy-quinazolin-2-yl)-piperazin-1-yl]-3-(4-fluoro-phenyl)-3-piperidin-1-yl-propan-1-one] it is 8.22; for `COCCN[C@H](CC(=O)N1CCN(c2nc(N)c3cc(OC)c(OC)c(F)c3n2)CC1)c1ccc(F)cc1` [Example 100, (R)-1-[4-(4-Amino-8-fluoro-6,7-dimethoxy-quinazolin-2-yl)-piperazin-1-yl]-3-(4-fluoro-phenyl)-3-(2-methoxy-ethylamino)-propan-1-one] it is 7.70.
The figure for `COc1cc2c(N)nc(N3CCN(C(=O)C[C@@H](NC(C)C)c4ccc(F)cn4)CC3)nc2c(F)c1OC` [Example 101, (R)-1-[4-(4-Amino-8-fluoro-6,7-dimethoxy-quinazolin-2-yl)-piperazin-1-yl]-3-(5-fluoro-pyridin-2-yl)-3-isopropylamino-propan-1-one] is 7.89; for `COc1cc2c(N)nc(N3CCN(C(=O)C[C@@H](NCC4(C)COC4)c4ccc(C#N)cc4)CC3)nc2c(F)c1OC` [Example 102] it is 9.00.
As for `COc1cc2c(N)nc(N3CCN(C(=O)C[C@H](c4ccc(F)cc4)N4CCCC4)CC3)nc2c(F)c1OC` [Example 103], the pIC50 is 7.82.
As for `COc1cc2c(N)nc(N3CCN(C(=O)[C@@H]4CCc5ccccc5[C@@H]4N)CC3)nc2c(F)c1OC` [Example 104, [4-(4-Amino-8-fluoro-6,7-dimethoxy-quinazolin-2-yl)-piperazin-1-yl]-((1R,2R)-1-amino-1,2,3,4-tetrahydro-naphthalen-2-yl)-methanone], the figure is 6.12; as for `COc1cc2c(N)nc(N3CCN(C(=O)[C@@H]4CCc5ccccc5[C@@H]4N)C[C@@H]3C)nc2c(F)c1OC` [Example 105, [(S)-4-(4-Amino-8-fluoro-6,7-dimethoxy-quinazolin-2-yl)-3-methyl-piperazin-1-yl]-((1R,2R)-1-amino-1,2,3,4-tetrahydro-naphthalen-2-yl)-methanone], 5.97.
The figure for `CC[C@H]1CN(C(=O)[C@@H]2CCc3ccccc3[C@@H]2N)CCN1c1nc(N)c2cc(OC)c(OC)c(F)c2n1` [Example 106, [(S)-4-(4-Amino-8-fluoro-6,7-dimethoxy-quinazolin-2-yl)-3-ethyl-piperazin-1-yl]-((1R,2R)-1-amino-1,2,3,4-tetrahydro-naphthalen-2-yl)-methanone] is 5.58; for `COc1cc2c(N)nc(N3CCN(C(=O)[C@@H]4CCc5ccccc5[C@@H]4N)C[C@@H]3c3ccccc3)nc2c(F)c1OC` [Example 107, [(S)-4-(4-Amino-8-fluoro-6,7-dimethoxy-quinazolin-2-yl)-3-phenyl-piperazin-1-yl]-((1R,2R)-1-amino-1,2,3,4-tetrahydro-naphthalen-2-yl)-methanone] it is 6.62; for `COc1cc2c(N)nc(N3CCN(C(=O)C[C@@H]4CCCN4CC(C)C)CC3)nc2c(F)c1OC` [Example 108, (S)-1-(4-(4-amino-8-fluoro-6,7-dimethoxyquinazolin-2-yl)piperazin-1-yl)-2-(1-isobutylpyrrolidin-2-yl)ethanone] it is 6.77.
Regarding `COc1cc2c(N)nc(N3CCN(C(=O)C[C@@H]4CCN4)CC3)nc2c(F)c1OC` [Example 109, 1-[4-(4-Amino-8-fluoro-6,7-dimethoxy-quinazolin-2-yl)-piperazin-1-yl]-2-(S)-azetidin-2-yl-ethanone], the pIC50 was 5.37.

These data come from US9452990B2, “Complement pathway modulators and uses thereof” (NOVARTIS AG, priority 2012, dated 2016).
